Reference: PMC4621896 (Oncotarget, 2015)
Like-named read-outs stand apart in the source and are kept apart here.

Tests used:
[1] = target: YopH protein tyrosine phosphatase from Yersinia pestis (Yersinia pestis, UniProt O68720); assay: biochemical
[2] = target: YopH from Yersinia enterocolitica (Yersinia enterocolitica, UniProt P15273); assay: biochemical
[3] = target: T1, Human recombinant CD45 (Homo sapiens, UniProt P08575); assay: biochemical
T1 construct: purchased Sigma-Aldrich
T1 sequence (P08575 609-1306 limits assumed): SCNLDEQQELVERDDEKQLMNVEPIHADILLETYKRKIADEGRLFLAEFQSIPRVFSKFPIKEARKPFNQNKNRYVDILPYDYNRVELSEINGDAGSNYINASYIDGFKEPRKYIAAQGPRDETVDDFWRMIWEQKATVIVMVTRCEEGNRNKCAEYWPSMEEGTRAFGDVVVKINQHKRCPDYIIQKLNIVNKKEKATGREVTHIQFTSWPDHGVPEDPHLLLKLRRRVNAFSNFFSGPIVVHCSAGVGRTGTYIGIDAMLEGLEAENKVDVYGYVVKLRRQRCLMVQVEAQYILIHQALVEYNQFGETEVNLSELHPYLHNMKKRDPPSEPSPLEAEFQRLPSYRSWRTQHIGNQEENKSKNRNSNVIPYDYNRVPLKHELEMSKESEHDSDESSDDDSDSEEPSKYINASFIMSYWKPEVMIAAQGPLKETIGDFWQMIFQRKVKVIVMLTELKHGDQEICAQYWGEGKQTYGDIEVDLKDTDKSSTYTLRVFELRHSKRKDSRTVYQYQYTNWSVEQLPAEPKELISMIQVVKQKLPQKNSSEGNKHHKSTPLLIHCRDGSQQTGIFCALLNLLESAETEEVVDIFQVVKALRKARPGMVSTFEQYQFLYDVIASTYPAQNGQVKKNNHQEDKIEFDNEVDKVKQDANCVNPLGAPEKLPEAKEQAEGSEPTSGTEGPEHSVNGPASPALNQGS

[4] = target: YopH Y. enterocolitica (Yersinia enterocolitica, UniProt P15273); format: biochemical
Sequence of YopH Y. enterocolitica (P15273 whole entry, looked up): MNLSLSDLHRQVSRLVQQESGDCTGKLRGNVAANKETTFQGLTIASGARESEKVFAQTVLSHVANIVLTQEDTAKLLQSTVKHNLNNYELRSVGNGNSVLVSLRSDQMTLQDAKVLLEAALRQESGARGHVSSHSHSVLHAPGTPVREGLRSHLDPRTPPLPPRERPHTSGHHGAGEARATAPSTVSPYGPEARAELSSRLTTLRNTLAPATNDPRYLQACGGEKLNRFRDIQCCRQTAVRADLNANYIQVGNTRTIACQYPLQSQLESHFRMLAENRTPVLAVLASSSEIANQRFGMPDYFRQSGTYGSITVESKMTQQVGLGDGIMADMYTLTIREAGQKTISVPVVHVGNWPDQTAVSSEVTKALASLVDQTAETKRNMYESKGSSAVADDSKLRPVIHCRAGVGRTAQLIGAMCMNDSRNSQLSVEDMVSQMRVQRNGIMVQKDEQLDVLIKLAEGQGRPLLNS

[5] = target: T2, YopH (Yersinia enterocolitica, UniProt P15273); format: biochemical
T2 sequence (P15273 whole entry, looked up): as above

[6] = target: T2, YopH; format: biochemical; remark: listed apart in the source

Sequence of YopH from Yersinia enterocolitica (P15273 whole entry, looked up): as above
Sequence of YopH protein tyrosine phosphatase from Yersinia pestis (O68720 1-468): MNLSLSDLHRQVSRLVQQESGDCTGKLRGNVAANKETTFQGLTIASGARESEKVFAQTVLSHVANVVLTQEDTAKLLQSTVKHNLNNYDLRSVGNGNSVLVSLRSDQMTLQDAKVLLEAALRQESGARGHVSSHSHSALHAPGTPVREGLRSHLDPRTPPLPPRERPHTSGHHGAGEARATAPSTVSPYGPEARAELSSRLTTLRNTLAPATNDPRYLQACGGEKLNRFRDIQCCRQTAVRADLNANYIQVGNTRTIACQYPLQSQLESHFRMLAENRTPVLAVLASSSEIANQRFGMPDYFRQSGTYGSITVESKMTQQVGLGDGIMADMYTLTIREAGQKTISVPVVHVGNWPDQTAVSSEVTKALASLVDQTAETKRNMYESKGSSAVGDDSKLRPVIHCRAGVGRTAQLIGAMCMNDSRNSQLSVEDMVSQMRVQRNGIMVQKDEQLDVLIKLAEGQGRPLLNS

For O=C(O)C1=CC(=C(c2ccc(O)c(C(=O)O)c2)c2ccc(O)c(C(=O)O)c2)C=CC1=O [ATA, aurintricarboxylic acid], the IC50 [1] was 10 nM, the IC50 [2] was 100 nM and the “Effect of catalase pretreatment on ATA induced CD45 inactivation” value [3] was “almost completely protected”. For the same compound, the IC50 [3] was 200 nM, the “Reversibility of ATA induced inhibition of YopH” value [4] was “completely reversed” and the “Effect of catalase on ATA induced decrease of thiol adducts” value [5] was “completely prevented”. The “Reduction of thiol-NBD adducts compared to control” value [5] was “over 50%” and the “Effect of catalase pretreatment on ATA induced YopH inactivation” value [6] was “almost completely protected”.

Compound CCCCCCCC(=O)OO [peroctanoic acid] has an IC50 ([1]; read-out: IC50 value, YopH Y.pestis inhibition) of 41 nM, an IC50 ([2]; read-out: IC50 value, YopH Y.entorocolitica inhibition) of 39 nM and an IC50 ([3]; read-out: IC50 value, CD45 inhibition) of 25 nM.
